Results: ChEMBL document CHEMBL3871274 (Eur J Med Chem, 2016)

Experiments:
[1] = Growth inhibition of human HCT116 cells after 96 hrs by MTS assay; assay type: functional; conditions: HCT-116, 96 h
Aurora kinase B [2] = target: T1, Aurora kinase B (Homo sapiens, UniProt Q96GD4)
Aurora kinase C = Aurora kinase C (Homo sapiens, UniProt Q9UQB9); assay: Inhibition of human recombinant full-length N-terminal GST-tagged Aurora C (1 to 275 end residues) expressed in baculovirus expression system using GLRRASLG-NH2 as substrate after 20 mins in presence of [gamma-33P]-ATP by liquid scintillation counting
Aurora kinase C, sequence (Q9UQB9 whole entry, the tested form may be a part): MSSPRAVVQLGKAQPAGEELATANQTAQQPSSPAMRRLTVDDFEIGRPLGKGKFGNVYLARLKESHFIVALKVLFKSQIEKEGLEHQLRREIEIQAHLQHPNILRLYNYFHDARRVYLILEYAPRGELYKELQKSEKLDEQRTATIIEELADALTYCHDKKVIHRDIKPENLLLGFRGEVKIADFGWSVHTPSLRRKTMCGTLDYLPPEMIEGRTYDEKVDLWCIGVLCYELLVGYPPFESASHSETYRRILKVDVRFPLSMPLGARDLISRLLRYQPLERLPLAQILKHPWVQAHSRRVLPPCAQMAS

[3] = target: Platelet-derived growth factor receptor beta (Homo sapiens) (UniProt P09619); assay: Inhibition of human recombinant His-tagged PDGFRbeta cytoplasmic domain (558 to 1106 residues) expressed in baculovirus expression system at 1 uM
[4] = target: Serine/threonine-protein kinase Chk1 (Homo sapiens) (UniProt O14757); assay: Inhibition of human recombinant full-length His-tagged CHK1 expressed in baculovirus expression system at 1 uM
Aurora kinase B [5] = target: T1, Aurora kinase B; assay: Inhibition of human recombinant full-length His-tagged Aurora B expressed in baculovirus expression system at 1 uM
[6] = target: Vascular endothelial growth factor receptor 1 (Homo sapiens, UniProt P17948); assay: Inhibition of human recombinant GST-tagged FLT1 cytoplasmic domain (781 to 1338 residues) expressed in baculovirus expression system at 1 uM
[7] = target: Vascular endothelial growth factor receptor 2 (Homo sapiens, UniProt P35968); assay: Inhibition of human recombinant His-tagged KDR cytoplasmic domain (789 to 1356 residues) expressed in baculovirus expression system at 1 uM
[8] = target: Tyrosine-protein kinase JAK1 (Homo sapiens) (UniProt P23458); assay: Inhibition of human recombinant GST-tagged JAK1 cytoplasmic domain (866 to 1154 residues) expressed in baculovirus expression system at 1 uM
[9] = target: Vascular endothelial growth factor receptor 3 (Homo sapiens, UniProt P35916); assay: Inhibition of human recombinant GST-tagged FLT4 cytoplasmic domain (800 to 1297 residues) expressed in baculovirus expression system at 1 uM
Vascular endothelial growth factor receptor 3, sequence (P35916 whole entry, the tested form may be a part): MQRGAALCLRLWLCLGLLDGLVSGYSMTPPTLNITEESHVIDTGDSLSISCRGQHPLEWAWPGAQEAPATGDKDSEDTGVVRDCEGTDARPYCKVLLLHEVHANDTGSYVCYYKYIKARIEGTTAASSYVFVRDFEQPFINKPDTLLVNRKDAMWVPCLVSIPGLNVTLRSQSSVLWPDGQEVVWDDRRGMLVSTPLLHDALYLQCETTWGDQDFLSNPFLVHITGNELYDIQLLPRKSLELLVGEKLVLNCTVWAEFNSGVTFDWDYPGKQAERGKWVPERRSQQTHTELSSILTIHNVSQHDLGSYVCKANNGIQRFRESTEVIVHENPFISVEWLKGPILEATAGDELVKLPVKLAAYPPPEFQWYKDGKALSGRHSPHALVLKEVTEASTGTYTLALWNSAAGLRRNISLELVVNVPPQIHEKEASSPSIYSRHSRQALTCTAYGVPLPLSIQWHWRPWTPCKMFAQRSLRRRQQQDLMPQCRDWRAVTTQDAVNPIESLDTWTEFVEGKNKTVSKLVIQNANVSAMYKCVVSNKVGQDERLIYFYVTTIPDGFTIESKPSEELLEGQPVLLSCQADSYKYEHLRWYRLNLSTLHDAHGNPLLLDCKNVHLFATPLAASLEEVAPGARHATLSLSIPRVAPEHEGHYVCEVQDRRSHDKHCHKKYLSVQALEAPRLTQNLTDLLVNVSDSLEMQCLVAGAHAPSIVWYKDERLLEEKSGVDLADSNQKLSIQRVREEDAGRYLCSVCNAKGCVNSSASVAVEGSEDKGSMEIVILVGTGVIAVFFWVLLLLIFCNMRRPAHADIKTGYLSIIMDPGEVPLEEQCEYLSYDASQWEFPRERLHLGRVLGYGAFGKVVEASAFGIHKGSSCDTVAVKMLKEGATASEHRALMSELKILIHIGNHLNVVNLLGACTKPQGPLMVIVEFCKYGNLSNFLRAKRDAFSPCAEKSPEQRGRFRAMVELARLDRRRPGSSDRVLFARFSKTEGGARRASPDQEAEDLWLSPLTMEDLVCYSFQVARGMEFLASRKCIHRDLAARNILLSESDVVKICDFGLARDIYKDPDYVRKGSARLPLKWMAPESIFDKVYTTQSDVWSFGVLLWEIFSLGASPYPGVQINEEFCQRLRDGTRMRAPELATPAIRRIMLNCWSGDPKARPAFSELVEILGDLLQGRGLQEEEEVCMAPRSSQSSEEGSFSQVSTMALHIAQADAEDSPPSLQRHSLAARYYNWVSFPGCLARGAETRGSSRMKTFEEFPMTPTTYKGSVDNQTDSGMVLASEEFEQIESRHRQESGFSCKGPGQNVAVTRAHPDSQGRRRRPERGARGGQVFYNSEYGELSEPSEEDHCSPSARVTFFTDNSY

[10] = target: Proto-oncogene tyrosine-protein kinase receptor Ret (Homo sapiens) (UniProt P07949); assay: Inhibition of human recombinant GST-tagged RET cytoplasmic domain (658 to 1114 residues) expressed in baculovirus expression system at 1 uM
Proto-oncogene tyrosine-protein kinase receptor Ret (Homo sapiens), sequence (P07949 whole entry, the tested form may be a part): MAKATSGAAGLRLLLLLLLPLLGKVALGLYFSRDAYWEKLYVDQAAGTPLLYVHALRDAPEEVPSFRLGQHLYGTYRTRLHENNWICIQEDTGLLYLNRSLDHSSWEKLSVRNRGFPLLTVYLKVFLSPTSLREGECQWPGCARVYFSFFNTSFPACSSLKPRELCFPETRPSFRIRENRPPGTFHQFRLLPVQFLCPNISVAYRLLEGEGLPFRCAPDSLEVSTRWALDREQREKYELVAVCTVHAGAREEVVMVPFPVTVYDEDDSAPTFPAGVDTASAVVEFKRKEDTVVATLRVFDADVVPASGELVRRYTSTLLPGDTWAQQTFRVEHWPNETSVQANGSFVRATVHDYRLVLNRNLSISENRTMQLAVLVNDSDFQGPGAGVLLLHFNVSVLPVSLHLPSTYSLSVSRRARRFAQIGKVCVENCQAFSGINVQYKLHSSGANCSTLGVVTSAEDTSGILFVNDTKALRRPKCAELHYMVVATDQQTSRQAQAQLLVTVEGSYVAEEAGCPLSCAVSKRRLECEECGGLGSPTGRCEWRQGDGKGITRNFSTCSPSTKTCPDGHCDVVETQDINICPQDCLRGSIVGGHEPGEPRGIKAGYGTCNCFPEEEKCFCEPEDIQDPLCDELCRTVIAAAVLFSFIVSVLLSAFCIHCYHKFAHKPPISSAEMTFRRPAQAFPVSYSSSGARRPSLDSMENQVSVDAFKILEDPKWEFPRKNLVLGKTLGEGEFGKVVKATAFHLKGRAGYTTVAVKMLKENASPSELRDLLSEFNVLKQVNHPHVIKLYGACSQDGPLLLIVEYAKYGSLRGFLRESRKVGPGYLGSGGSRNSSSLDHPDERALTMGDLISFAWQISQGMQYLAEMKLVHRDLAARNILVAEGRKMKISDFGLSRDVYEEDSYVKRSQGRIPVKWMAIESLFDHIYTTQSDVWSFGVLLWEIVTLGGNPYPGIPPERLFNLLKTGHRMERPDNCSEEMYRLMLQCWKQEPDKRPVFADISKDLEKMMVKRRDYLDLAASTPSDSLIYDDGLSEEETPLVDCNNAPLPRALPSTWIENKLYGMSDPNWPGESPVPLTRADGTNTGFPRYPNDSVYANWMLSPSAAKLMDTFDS

[11] = target: Tyrosine-protein kinase ABL1 (Homo sapiens) (UniProt P00519); assay: Inhibition of human recombinant full-length His-tagged ABL1 cytoplasmic domain expressed in baculovirus expression system at 1 uM
[12] = target: High affinity nerve growth factor receptor (Homo sapiens) (UniProt P04629); assay: Inhibition of human recombinant His-tagged NTRK1 cytoplasmic domain (441 to 796 residues) expressed in baculovirus expression system at 1 uM
[13] = target: Phosphatidylinositol 4-phosphate 3-kinase C2 domain-containing subunit alpha (Homo sapiens) (UniProt O00443); assay: Inhibition of human recombinant N-terminal GST-tagged PIK3C2A catalytic domain expressed in baculovirus expression system at 1 uM
Phosphatidylinositol 4-phosphate 3-kinase C2 domain-containing subunit alpha (Homo sapiens), sequence (O00443 whole entry, the tested form may be a part): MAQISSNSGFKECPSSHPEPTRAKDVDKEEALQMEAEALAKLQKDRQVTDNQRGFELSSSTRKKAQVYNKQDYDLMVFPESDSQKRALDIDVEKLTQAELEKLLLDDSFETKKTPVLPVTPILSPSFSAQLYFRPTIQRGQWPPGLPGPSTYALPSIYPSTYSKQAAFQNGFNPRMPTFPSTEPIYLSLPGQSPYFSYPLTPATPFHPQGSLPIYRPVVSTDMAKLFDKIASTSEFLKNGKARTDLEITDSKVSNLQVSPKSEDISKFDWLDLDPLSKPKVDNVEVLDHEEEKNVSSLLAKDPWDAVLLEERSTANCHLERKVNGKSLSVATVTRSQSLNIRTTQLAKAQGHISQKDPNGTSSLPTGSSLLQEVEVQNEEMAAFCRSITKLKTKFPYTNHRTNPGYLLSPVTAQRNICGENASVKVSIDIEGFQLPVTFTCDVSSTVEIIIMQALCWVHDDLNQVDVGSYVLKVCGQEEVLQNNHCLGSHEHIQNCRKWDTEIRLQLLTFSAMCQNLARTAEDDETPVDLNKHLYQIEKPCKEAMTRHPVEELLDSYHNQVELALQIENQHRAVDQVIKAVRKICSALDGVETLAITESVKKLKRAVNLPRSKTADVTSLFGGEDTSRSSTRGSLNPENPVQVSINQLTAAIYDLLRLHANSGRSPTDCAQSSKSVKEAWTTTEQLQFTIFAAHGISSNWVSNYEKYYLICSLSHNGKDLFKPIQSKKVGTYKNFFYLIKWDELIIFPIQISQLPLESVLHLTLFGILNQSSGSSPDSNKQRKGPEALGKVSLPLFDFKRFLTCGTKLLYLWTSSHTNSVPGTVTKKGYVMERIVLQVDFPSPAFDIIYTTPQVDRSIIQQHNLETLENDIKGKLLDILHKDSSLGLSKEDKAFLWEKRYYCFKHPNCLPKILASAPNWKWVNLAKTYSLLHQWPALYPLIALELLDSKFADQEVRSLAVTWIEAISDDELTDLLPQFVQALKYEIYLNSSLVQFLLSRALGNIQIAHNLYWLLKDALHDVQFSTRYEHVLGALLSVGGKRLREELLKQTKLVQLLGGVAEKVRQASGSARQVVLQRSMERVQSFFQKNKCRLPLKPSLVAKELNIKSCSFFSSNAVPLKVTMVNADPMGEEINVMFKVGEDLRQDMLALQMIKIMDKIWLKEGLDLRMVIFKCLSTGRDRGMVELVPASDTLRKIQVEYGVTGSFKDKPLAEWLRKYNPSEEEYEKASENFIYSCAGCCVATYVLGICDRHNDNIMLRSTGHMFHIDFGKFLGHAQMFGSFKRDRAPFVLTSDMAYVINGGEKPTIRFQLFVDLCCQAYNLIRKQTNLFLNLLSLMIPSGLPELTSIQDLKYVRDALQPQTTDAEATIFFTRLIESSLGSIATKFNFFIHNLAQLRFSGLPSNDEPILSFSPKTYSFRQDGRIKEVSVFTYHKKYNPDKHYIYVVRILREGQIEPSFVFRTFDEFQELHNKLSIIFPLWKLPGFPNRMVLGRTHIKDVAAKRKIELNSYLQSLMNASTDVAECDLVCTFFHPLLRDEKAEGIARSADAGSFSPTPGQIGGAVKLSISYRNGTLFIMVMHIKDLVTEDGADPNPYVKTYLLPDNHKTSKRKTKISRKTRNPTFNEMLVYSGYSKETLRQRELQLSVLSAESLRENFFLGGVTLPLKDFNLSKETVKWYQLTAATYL

[14] = target: Rho-associated protein kinase 1 (Homo sapiens) (UniProt Q13464); assay: Inhibition of human recombinant GST-tagged ROCK1 catalytic domain (1 to 535 residues) expressed in baculovirus expression system at 1 uM
[15] = target: Cyclin-dependent kinase 1 (Homo sapiens) (UniProt P06493); assay: Inhibition of CDK1 (unknown origin) at 1 uM
[16] = target: Phosphatidylinositol 4-phosphate 3-kinase C2 domain-containing subunit beta (Homo sapiens) (UniProt O00750); assay: Inhibition of human recombinant N-terminal GST-tagged PIK3C2B (155 to 1383 residues) catalytic domain expressed in baculovirus expression system at 1 uM
[17] = target: Angiopoietin-1 receptor (Homo sapiens) (UniProt Q02763); assay: Inhibition of human recombinant GST-tagged TEK cytoplasmic domain (817 to 1101 residues) expressed in baculovirus expression system at 1 uM
[18] = target: Aurora kinase C (Homo sapiens) (UniProt Q9UQB9); assay: Inhibition of human recombinant full-length GST-tagged Aurora C expressed in baculovirus expression system at 1 uM
Aurora kinase C (Homo sapiens), sequence (Q9UQB9 whole entry): as the sequence (Q9UQB9 whole entry, the tested form may be a part) above

[19] = target: Serine/threonine-protein kinase Chk2 (Homo sapiens) (UniProt O96017); assay: Inhibition of human recombinant full-length His-tagged CHK2 expressed in baculovirus expression system at 1 uM
[20] = target: Receptor-type tyrosine-protein kinase FLT3 (Homo sapiens) (UniProt P36888); assay: Inhibition of human recombinant His-tagged FLT3 cytoplasmic domain (564 to 958 residues) expressed in baculovirus expression system at 1 uM
[21] = target: Mast/stem cell growth factor receptor Kit (Homo sapiens) (UniProt P10721); assay: Inhibition of human recombinant His-tagged KIT cytoplasmic domain (544 to 976 residues) expressed in baculovirus expression system at 1 uM
[22] = target: Rho-associated protein kinase 2 (Homo sapiens) (UniProt O75116); assay: Inhibition of human recombinant N-terminal GST-tagged ROCK2 catalytic domain (1 to 552 residues) expressed in baculovirus expression system at 1 uM
[23] = target: Platelet-derived growth factor receptor alpha (Homo sapiens) (UniProt P16234); assay: Inhibition of human recombinant GST-tagged PDGFRalpha cytoplasmic domain (550 to 1089 residues) expressed in baculovirus expression system at 1 uM
[24] = target: Dual specificity protein kinase TTK (Homo sapiens) (UniProt P33981); assay: Inhibition of human recombinant full-length GST-tagged TTK expressed in baculovirus expression system at 1 uM
[25] = target: Cyclin-dependent kinase 2 (Homo sapiens) (UniProt P24941); assay: Inhibition of CDK2 (unknown origin) at 1 uM

T1 sequence (Q96GD4 whole entry): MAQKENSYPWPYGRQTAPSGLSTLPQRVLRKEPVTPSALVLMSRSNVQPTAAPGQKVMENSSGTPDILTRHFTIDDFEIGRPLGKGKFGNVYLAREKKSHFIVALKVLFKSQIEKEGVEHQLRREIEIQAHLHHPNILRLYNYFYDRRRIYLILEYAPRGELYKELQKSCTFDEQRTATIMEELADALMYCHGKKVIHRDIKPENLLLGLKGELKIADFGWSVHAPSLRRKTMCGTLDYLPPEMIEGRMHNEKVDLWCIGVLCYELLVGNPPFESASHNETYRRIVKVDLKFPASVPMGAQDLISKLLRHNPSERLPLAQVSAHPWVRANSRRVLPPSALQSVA

NC(=O)CCC(=O)Nc1cccc(-c2n[nH]c3ccc(NS(=O)(=O)c4ccccc4)cc23)c1
GI50 [1]: > 20000 nM | IC50 (Aurora kinase B [2]): 49 nM

Cc1ccc(S(=O)(=O)Nc2ccc3[nH]nc(-c4cccc(NC(=O)/C=C\C(=O)O)c4)c3c2)cc1
GI50 [1]: > 20000 nM | IC50 (Aurora kinase B [2]): 32 nM

O=C(O)[C@]1(Cc2cccc(Nc3nccs3)n2)CC[C@@H](Oc2cccc(Cl)c2F)CC1 [MK-5108]
IC50 (Aurora kinase C): 12 nM

O=C(O)/C=C\C(=O)Nc1cccc(-c2n[nH]c3ccc(NS(=O)(=O)c4ccccc4)cc23)c1
inhibition [3]: -2% | inhibition [4]: 16% | inhibition (Aurora kinase B [5]): 89% | inhibition [6]: 1% | inhibition [7]: 48% | inhibition [8]: 39% | inhibition [9]: 64% | inhibition [10]: 61% | GI50 [1]: > 20000 nM | inhibition [11]: 31% | inhibition [12]: 58% | inhibition [13]: 1% | inhibition [14]: 10% | inhibition [15]: 21% | inhibition [16]: 20% | IC50 (Aurora kinase B [2]): 15 nM | inhibition [17]: 48% | inhibition [18]: 94% | inhibition [19]: 8% | inhibition [20]: 85% | inhibition [21]: -4% | inhibition [22]: 8% | inhibition [23]: 24% | inhibition [24]: 93% | inhibition [25]: 17%

O=C(O)/C=C\C(=O)Nc1cccc(-c2n[nH]c3ccc(NS(=O)(=O)c4ccc(-c5ccccc5)cc4)cc23)c1
GI50 [1]: > 20000 nM

O=C(O)/C=C\C(=O)Nc1cccc(-c2n[nH]c3ccc(NS(=O)(=O)c4ccc([N+](=O)[O-])cc4)cc23)c1
GI50 [1]: > 20000 nM | IC50 (Aurora kinase B [2]): 26 nM

CC#CC(=O)Nc1cccc(-c2n[nH]c3ccc(NS(=O)(=O)c4ccccc4)cc23)c1
GI50 [1]: 3600 nM | IC50 (Aurora kinase B [2]): > 1000 nM

O=C(O)/C=C/C(=O)Nc1cccc(-c2n[nH]c3ccc(NS(=O)(=O)c4ccccc4)cc23)c1
GI50 [1]: > 20000 nM

CC(C)OC(=O)CCC(=O)Nc1cccc(-c2n[nH]c3ccc(NS(=O)(=O)c4ccccc4)cc23)c1
GI50 [1]: > 20000 nM | IC50 (Aurora kinase B [2]): 220 nM

COC(=O)CCC(=O)Nc1cccc(-c2n[nH]c3ccc(NS(=O)(=O)c4ccccc4)cc23)c1
GI50 [1]: 12000 nM | IC50 (Aurora kinase B [2]): 48 nM

CCOC(=O)CCC(=O)Nc1cccc(-c2n[nH]c3ccc(NS(=O)(=O)c4ccccc4)cc23)c1
GI50 [1]: 1900 nM | IC50 (Aurora kinase B [2]): 64 nM

O=C(O)CCC(=O)Nc1cccc(-c2n[nH]c3ccc(NS(=O)(=O)c4ccccc4)cc23)c1
GI50 [1]: > 20000 nM | IC50 (Aurora kinase B [2]): 28 nM

CC(C)(C)c1ccc(S(=O)(=O)Nc2ccc3[nH]nc(-c4cccc(NC(=O)/C=C\C(=O)O)c4)c3c2)cc1
GI50 [1]: > 20000 nM

COc1ccc(S(=O)(=O)Nc2ccc3[nH]nc(-c4cccc(NC(=O)/C=C\C(=O)O)c4)c3c2)cc1
GI50 [1]: > 20000 nM | IC50 (Aurora kinase B [2]): 31 nM

O=C(O)/C=C\C(=O)Nc1cccc(-c2n[nH]c3ccc(NS(=O)(=O)c4ccc(F)cc4)cc23)c1
GI50 [1]: > 20000 nM | IC50 (Aurora kinase B [2]): 30 nM
